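All cell lines were grown in 96-well plates and treated with compound for 48 hours. At the GI50, growth is halved. TGI denotes the concentration required for complete inhibition of growth.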
Columns and labels:
Experiment in all cases: DTP human tumour cell line panel, 48 h
BT-549 breast = test system: BT-549 breast
HOP-62 NSCLC = test system: HOP-62 NSCLC
HCC-2998 colon = test system: HCC-2998 colon
NCI-H226 lung = test system: NCI-H226 lung
DU-145 prostate = test system: DU-145 prostate
RXF 393 renal = test system: RXF 393 renal
OVCAR-3 ovarian = test system: OVCAR-3 ovarian
UACC-257 melanoma = test system: UACC-257 melanoma
SF-295 CNS = test system: SF-295 CNS
SK-MEL-28 melanoma = test system: SK-MEL-28 melanoma
HT29 colon = test system: HT29 colon
HL-60(TB) leukemia = test system: HL-60(TB) leukemia
SNB-75 CNS = test system: SNB-75 CNS
CCRF-CEM leukemia = test system: CCRF-CEM leukemia
NCI-H522 lung = test system: NCI-H522 lung
LOX IMVI melanoma = test system: LOX IMVI melanoma
NCI-H23 lung = test system: NCI-H23 lung
UO-31 renal = test system: UO-31 renal
M14 melanoma = test system: M14 melanoma
KM12 colon = test system: KM12 colon
PC-3 prostate = test system: PC-3 prostate
U251 CNS = test system: U251 CNS
SK-MEL-2 melanoma = test system: SK-MEL-2 melanoma
NCI/ADR-RES ovarian = test system: NCI/ADR-RES ovarian
ACHN renal = test system: ACHN renal
MCF7 breast = test system: MCF7 breast
SK-OV-3 ovarian = test system: SK-OV-3 ovarian
MDA-MB-435 = test system: MDA-MB-435
A549 NSCLC = test system: A549 NSCLC
MALME-3M melanoma = test system: MALME-3M melanoma
A498 renal = test system: A498 renal
TK-10 renal = test system: TK-10 renal
MDA-MB-231 breast = test system: MDA-MB-231 breast
NCI-H460 lung = test system: NCI-H460 lung
OVCAR-8 ovarian = test system: OVCAR-8 ovarian
IGROV1 ovarian = test system: IGROV1 ovarian
RPMI-8226 leukemia = test system: RPMI-8226 leukemia
SN12C renal = test system: SN12C renal
OVCAR-5 ovarian = test system: OVCAR-5 ovarian
HCT-15 colon = test system: HCT-15 colon
786-0 renal = test system: 786-0 renal
HCT-116 colon = test system: HCT-116 colon
HS 578T breast = test system: HS 578T breast
COLO 205 colon = test system: COLO 205 colon
SW-620 colon = test system: SW-620 colon
SF-539 CNS = test system: SF-539 CNS
OVCAR-4 ovarian = test system: OVCAR-4 ovarian
CAKI-1 renal = test system: CAKI-1 renal
SF-268 CNS = test system: SF-268 CNS
EKVX NSCLC = test system: EKVX NSCLC
SK-MEL-5 melanoma = test system: SK-MEL-5 melanoma
T-47D breast = test system: T-47D breast
UACC-62 melanoma = test system: UACC-62 melanoma
K-562 leukemia = test system: K-562 leukemia
HOP-92 NSCLC = test system: HOP-92 NSCLC
MOLT-4 leukemia = test system: MOLT-4 leukemia
SNB-19 CNS = test system: SNB-19 CNS

In the case of `NC(N)=Nc1ccc(CC(N)C(=O)NCC(=O)C(CC(=O)O)c2ncc(NC(=O)C(F)(F)F)o2)cc1` (configuration not stated), the TGI (BT-549 breast) is reported as > 25 µM, the TGI (HOP-62 NSCLC) is reported as > 25 µM and the TGI (HCC-2998 colon) is reported as > 25 µM. The TGI (NCI-H226 lung) was > 25 µM, the TGI (DU-145 prostate) was > 25 µM and the TGI (RXF 393 renal) was > 25 µM. For the same compound, the TGI (OVCAR-3 ovarian) was > 25 µM, the TGI (UACC-257 melanoma) was > 25 µM and the TGI (SF-295 CNS) was > 25 µM. The TGI (SK-MEL-28 melanoma) was > 25 µM, the TGI (HT29 colon) was > 25 µM and the TGI (HL-60(TB) leukemia) was > 25 µM. The TGI (SNB-75 CNS) was > 25 µM, the TGI (CCRF-CEM leukemia) was > 25 µM and the TGI (NCI-H522 lung) was > 25 µM. The TGI (LOX IMVI melanoma) was > 25 µM, the TGI (NCI-H23 lung) was > 25 µM and the TGI (UO-31 renal) was > 25 µM. The TGI (M14 melanoma) was > 25 µM, the TGI (KM12 colon) was > 25 µM and the TGI (PC-3 prostate) was > 25 µM. The TGI (U251 CNS) was > 25 µM, the TGI (SK-MEL-2 melanoma) was > 25 µM and the TGI (NCI/ADR-RES ovarian) was > 25 µM. The TGI (ACHN renal) was > 25 µM, the TGI (MCF7 breast) was > 25 µM and the TGI (SK-OV-3 ovarian) was > 25 µM. For the same compound, the TGI (MDA-MB-435) was > 25 µM, the TGI (A549 NSCLC) was > 25 µM and the TGI (MALME-3M melanoma) was > 25 µM. For the same compound, the TGI (A498 renal) was > 25 µM, the TGI (TK-10 renal) was > 25 µM and the TGI (MDA-MB-231 breast) was > 25 µM. The TGI (NCI-H460 lung) was > 25 µM, the TGI (OVCAR-8 ovarian) was > 25 µM and the TGI (IGROV1 ovarian) was > 25 µM. For the same compound, the TGI (RPMI-8226 leukemia) was > 25 µM, the TGI (SN12C renal) was > 25 µM and the TGI (OVCAR-5 ovarian) was > 25 µM. For the same compound, the TGI (HCT-15 colon) was > 25 µM, the TGI (786-0 renal) was > 25 µM and the TGI (HCT-116 colon) was > 25 µM. The TGI (HS 578T breast) was > 25 µM, the TGI (COLO 205 colon) was > 25 µM and the TGI (SW-620 colon) was > 25 µM. The TGI (SF-539 CNS) was > 25 µM, the TGI (OVCAR-4 ovarian) was > 25 µM and the TGI (CAKI-1 renal) was > 25 µM. The TGI (SF-268 CNS) was > 25 µM, the TGI (EKVX NSCLC) was > 25 µM and the TGI (SK-MEL-5 melanoma) was > 25 µM. For the same compound, the TGI (T-47D breast) was > 25 µM and the TGI (UACC-62 melanoma) was > 25 µM.
`Cn1c([N+](=O)[O-])cnc1/C=C1\Oc2ccc(Br)cc2C1=O` gave a GI50 (BT-549 breast) of 0.715 µM, a TGI (BT-549 breast) of 4.76 µM and a GI50 (HOP-62 NSCLC) of 1.14 µM. For the same compound, the TGI (HOP-62 NSCLC) was 3.95 µM, the GI50 (HCC-2998 colon) was 0.995 µM and the TGI (HCC-2998 colon) was 3.62 µM. The GI50 (NCI-H226 lung) was 1.38 µM, the TGI (NCI-H226 lung) was 4.89 µM and the GI50 (DU-145 prostate) was 0.338 µM. The TGI (DU-145 prostate) was 0.933 µM, the GI50 (RXF 393 renal) was 0.416 µM and the TGI (RXF 393 renal) was 1.94 µM. The GI50 (OVCAR-3 ovarian) was 0.276 µM, the TGI (OVCAR-3 ovarian) was 0.69 µM and the GI50 (UACC-257 melanoma) was 0.854 µM. It also gave a TGI (UACC-257 melanoma) of 4.07 µM, a GI50 (SF-295 CNS) of 1.7 µM and a TGI (SF-295 CNS) of 7.85 µM. It also gave a GI50 (SK-MEL-28 melanoma) of 0.532 µM, a TGI (SK-MEL-28 melanoma) of 2.87 µM and a GI50 (HT29 colon) of 0.231 µM. For the same compound, the TGI (HT29 colon) was 0.622 µM, the GI50 (HL-60(TB) leukemia) was 0.334 µM and the TGI (HL-60(TB) leukemia) was 1.57 µM. It also gave a GI50 (SNB-75 CNS) of 1.04 µM, a TGI (SNB-75 CNS) of 4.45 µM and a GI50 (CCRF-CEM leukemia) of 0.2 µM. For the same compound, the TGI (CCRF-CEM leukemia) was 0.706 µM, the GI50 (NCI-H522 lung) was 0.357 µM and the TGI (NCI-H522 lung) was 1.04 µM. For the same compound, the GI50 (LOX IMVI melanoma) was 0.209 µM, the TGI (LOX IMVI melanoma) was 0.543 µM and the GI50 (K-562 leukemia) was 0.4 µM. The TGI (K-562 leukemia) was 3.28 µM, the GI50 (NCI-H23 lung) was 0.432 µM and the TGI (NCI-H23 lung) was 2.35 µM. For the same compound, the GI50 (UO-31 renal) was 0.24 µM, the TGI (UO-31 renal) was 0.765 µM and the GI50 (M14 melanoma) was 0.445 µM. For the same compound, the TGI (M14 melanoma) was 2.1 µM, the GI50 (KM12 colon) was 0.312 µM and the TGI (KM12 colon) was 0.957 µM. It also gave a GI50 (PC-3 prostate) of 0.471 µM, a GI50 (U251 CNS) of 0.466 µM and a TGI (U251 CNS) of 2.54 µM. For the same compound, the GI50 (SK-MEL-2 melanoma) was 0.445 µM, the TGI (SK-MEL-2 melanoma) was 1.96 µM and the GI50 (NCI/ADR-RES ovarian) was 0.609 µM. It also gave a TGI (NCI/ADR-RES ovarian) of 74.4 µM, a GI50 (ACHN renal) of 0.212 µM and a TGI (ACHN renal) of 0.585 µM. The GI50 (HOP-92 NSCLC) was 0.369 µM, the TGI (HOP-92 NSCLC) was 2.58 µM and the GI50 (MCF7 breast) was 0.33 µM. For the same compound, the TGI (MCF7 breast) was 7.97 µM, the GI50 (SK-OV-3 ovarian) was 1.45 µM and the TGI (SK-OV-3 ovarian) was 6.08 µM. For the same compound, the GI50 (MDA-MB-435) was 0.253 µM, the TGI (MDA-MB-435) was 0.731 µM and the GI50 (A549 NSCLC) was 0.927 µM. The TGI (A549 NSCLC) was 5.2 µM, the GI50 (MALME-3M melanoma) was 0.683 µM and the TGI (MALME-3M melanoma) was 2.21 µM. The GI50 (A498 renal) was 1.72 µM, the TGI (A498 renal) was 4.67 µM and the GI50 (TK-10 renal) was 0.671 µM. It also gave a TGI (TK-10 renal) of 2.64 µM, a GI50 (MDA-MB-231 breast) of 0.374 µM and a TGI (MDA-MB-231 breast) of 4.81 µM. It also gave a GI50 (NCI-H460 lung) of 0.253 µM, a TGI (NCI-H460 lung) of 0.654 µM and a GI50 (OVCAR-8 ovarian) of 0.266 µM. For the same compound, the GI50 (IGROV1 ovarian) was 0.469 µM, the GI50 (RPMI-8226 leukemia) was 0.352 µM and the TGI (RPMI-8226 leukemia) was 2.87 µM. The GI50 (SN12C renal) was 0.421 µM, the TGI (SN12C renal) was 4.16 µM and the GI50 (OVCAR-5 ovarian) was 1.48 µM. For the same compound, the TGI (OVCAR-5 ovarian) was 5.64 µM, the GI50 (HCT-15 colon) was 0.193 µM and the TGI (HCT-15 colon) was 0.657 µM. It also gave a GI50 (786-0 renal) of 0.557 µM, a TGI (786-0 renal) of 2.07 µM and a GI50 (HCT-116 colon) of 0.179 µM. For the same compound, the TGI (HCT-116 colon) was 0.652 µM, the GI50 (HS 578T breast) was 0.89 µM and the TGI (HS 578T breast) was > 23.4 µM. For the same compound, the GI50 (COLO 205 colon) was 0.925 µM, the TGI (COLO 205 colon) was 3.17 µM and the GI50 (SW-620 colon) was 0.157 µM. The TGI (SW-620 colon) was 0.537 µM, the GI50 (SF-539 CNS) was 0.922 µM and the TGI (SF-539 CNS) was 3.28 µM. The GI50 (MOLT-4 leukemia) was 0.316 µM, the TGI (MOLT-4 leukemia) was 7.3 µM and the GI50 (OVCAR-4 ovarian) was 1.58 µM. The TGI (OVCAR-4 ovarian) was > 20.2 µM, the GI50 (CAKI-1 renal) was 0.277 µM and the TGI (CAKI-1 renal) was 0.95 µM. For the same compound, the GI50 (SF-268 CNS) was 0.299 µM, the TGI (SF-268 CNS) was 0.933 µM and the GI50 (SK-MEL-5 melanoma) was 0.213 µM. The TGI (SK-MEL-5 melanoma) was 0.586 µM, the GI50 (T-47D breast) was 5.41 µM and the TGI (T-47D breast) was > 75.9 µM. The GI50 (UACC-62 melanoma) was 0.993 µM, the TGI (UACC-62 melanoma) was 2.68 µM and the GI50 (SNB-19 CNS) was 1.19 µM. It also gave a TGI (SNB-19 CNS) of 6.17 µM.

From PubChem BioAssay (NCI)
